Laboratory results: PubChem BioAssay AID328 (DTP/NCI, 2004)
Inconclusive results and toxic doses are left out. Rule for the calls: active = survival T/C of 150% or more; inactive = T/C below 125% in these data.

Tested on: BDF1 mice, P388 leukemia ip, median survival T/C
Test: NCI In Vivo Anticancer Drug Screen. Data for tumor model P388 Leukemia (intraperitoneal) in B6D2F1 (BDF1) mice
Details: endpoint: median survival time, higher = longer survival
Summary of the method: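 Compound-treated tumour-bearing mice were compared with vehicle-treated controls. Survival was recorded, and the value is the treated-group measurement divided by the control-group measurement (T/C).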

[1] = dose: 25.0 mg/kg/injection, schedule: Q01DX009 (ip), vehicle: saline with Tween-80
[2] = dose: 50.0 mg/kg/injection, schedule: Q01DX009 (ip), vehicle: saline with Tween-80
[3] = dose: 50.0 mg/kg/injection, schedule: Q04DX003 (ip), vehicle: saline with Tween-80
[4] = dose: 100.0 mg/kg/injection, schedule: Q04DX003 (ip), vehicle: saline with Tween-80
[5] = dose: 50.0 mg/kg/injection, schedule: Q01DX009 (ip), vehicle: saline
[6] = dose: 100.0 mg/kg/injection, schedule: Q01DX009 (ip), vehicle: saline with Tween-80
[7] = dose: 100.0 mg/kg/injection, schedule: Q01DX009 (ip), vehicle: saline
[8] = dose: 200.0 mg/kg/injection, schedule: Q01DX009 (ip), vehicle: saline
[9] = dose: 200.0 mg/kg/injection, schedule: Q01DX009 (ip), vehicle: saline with Tween-80

Measured: T/C

O=[N+]([O-])OCc1c(Cl)nc(Cl)c(Cl)c1Cl
inactive: [1] 115 % of control | dose: 25.0 mg/kg/injection, schedule: Q04DX003 (ip), vehicle: saline with Tween-80 95 % of control | [2] 110 % of control | [3] 100 % of control | [4] 108 % of control

COC(=O)C1C(O)CCC2CN3CCc4c([nH]c5ccccc45)C3CC21 (configuration not stated)
inactive: dose: 25.0 mg/kg/injection, schedule: Q01DX009 (ip), vehicle: saline 88 % of control | [2] 105 % of control | [5] 88 % of control | [6] 119 % of control | [7] 110 % of control | [8] 118 % of control

COC1CC(O)C(O)C(C)O1 (configuration not stated)
inactive: [2] 97 % of control | [5] 100 % of control | [6] 95 % of control | [7] 107 % of control | [4] 106 % of control | [9] 100 % of control | [8] 118 % of control | dose: 200.0 mg/kg/injection, schedule: Q04DX003 (ip), vehicle: saline with Tween-80 101 % of control | dose: 400.0 mg/kg/injection, schedule: Q01DX009 (ip), vehicle: saline with Tween-80 95 % of control | dose: 400.0 mg/kg/injection, schedule: Q01DX009 (ip), vehicle: saline 99 % of control | dose: 400.0 mg/kg/injection, schedule: Q04DX003 (ip), vehicle: saline with Tween-80 99 % of control

[NH-]C(CC(N)=O)C(=O)O.[NH-]C(CC(N)=O)C(=O)O.[Ni+2] (configuration not stated)
inactive: dose: 3.12 mg/kg/injection, schedule: Q01DX009 (ip), vehicle: water 88 % of control | dose: 6.25 mg/kg/injection, schedule: Q01DX009 (ip), vehicle: water 100 % of control | dose: 12.5 mg/kg/injection, schedule: Q01DX009 (ip), vehicle: water 94 % of control

CN1C(C)(C)CC(O)(C(O)(c2ccccc2)c2ccccc2)CC1(C)C
inactive: dose: 12.5 mg/kg/injection, schedule: Q04DX003 (ip), vehicle: Klucel (hydroxypropylcellulose) (HPC) 109 % of control | dose: 25.0 mg/kg/injection, schedule: Q04DX003 (ip), vehicle: Klucel (hydroxypropylcellulose) (HPC) 109 % of control | dose: 50.0 mg/kg/injection, schedule: Q04DX003 (ip), vehicle: Klucel (hydroxypropylcellulose) (HPC) 113 % of control

CCC(C)(CC(=O)O)CC(=O)O
inactive: dose: 3.12 mg/kg/injection, schedule: Q01DX009 (ip), vehicle: saline with Tween-80 95 % of control | dose: 6.25 mg/kg/injection, schedule: Q01DX009 (ip), vehicle: saline with Tween-80 112 % of control | dose: 12.5 mg/kg/injection, schedule: Q01DX009 (ip), vehicle: saline with Tween-80 116 % of control | [1] 87 % of control | [2] 87 % of control | dose: 100.0 mg/kg/injection, schedule: Q04DX003 (ip), vehicle: saline 110 % of control | dose: 200.0 mg/kg/injection, schedule: Q04DX003 (ip), vehicle: saline 120 % of control | dose: 400.0 mg/kg/injection, schedule: Q04DX003 (ip), vehicle: saline 120 % of control

CCOC(=O)C(Cc1ccccc1)P(=O)(OCC)OCC (configuration not stated)
inactive: [6] 109 % of control | [9] 104 % of control

Nc1nc(C=O)c(CCc2ccccc2)c(=O)[nH]1
inactive: [3] 113 % of control

CC1(C)CC2(CC(C)(C)c3cc(O)c(O)cc32)c2cc(O)c(O)cc21
inactive: dose: 100.0 mg/kg/injection, schedule: Q04DX003 (ip), vehicle: saline sonified 109 % of control | dose: 200.0 mg/kg/injection, schedule: Q04DX003 (ip), vehicle: saline sonified 104 % of control | dose: 400.0 mg/kg/injection, schedule: Q04DX003 (ip), vehicle: saline sonified 100 % of control
